According to patent publication US8198405B2, “Stabilized alpha helical peptides and uses thereof” (Dana-Farber Cancer Institute, Inc., priority 2003, dated 2012):
Where a SMILES comes first, the peptide text is derived from it. Bridges are numbered along the chain shown (N, C = ends). [ ]: non-standard residue; d: D form. S5 = C=CCCC[C@](C)(N)C(=O)O; Nle = CCCC[C@H](N)C(=O)O

What was measured:
BCL-2 = target: T1, BCL-2 (Homo sapiens, UniProt P10415); experiment: Fluorescence polarization direct binding assay; details: fluorescinated compounds 25 nM, GST-BCL2 25 nM-1000 nM (FIG. 11d)
T1 construct: containing the plasmid encoding C-terminal deleted GST-BCL-2; made in house; host or cells: Escherichia coli BL21 (DE3)
T1 sequence (P10415 1-218 limits assumed): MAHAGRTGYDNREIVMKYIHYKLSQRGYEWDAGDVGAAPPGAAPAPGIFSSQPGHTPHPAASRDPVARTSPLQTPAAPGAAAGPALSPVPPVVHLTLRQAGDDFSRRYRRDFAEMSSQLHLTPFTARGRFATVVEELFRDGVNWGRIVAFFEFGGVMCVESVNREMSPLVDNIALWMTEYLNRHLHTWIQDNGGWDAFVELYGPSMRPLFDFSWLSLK

BAX = target: T2, BAX (Homo sapiens, UniProt Q07812); experiment: Fluorescence polarization direct binding assay; details: full-length BAX
T2 construct: Full-length BAX protein was prepared as previously described (Suzuki et al, Cell, 103:645); made in house
T2 sequence (Q07812 whole entry): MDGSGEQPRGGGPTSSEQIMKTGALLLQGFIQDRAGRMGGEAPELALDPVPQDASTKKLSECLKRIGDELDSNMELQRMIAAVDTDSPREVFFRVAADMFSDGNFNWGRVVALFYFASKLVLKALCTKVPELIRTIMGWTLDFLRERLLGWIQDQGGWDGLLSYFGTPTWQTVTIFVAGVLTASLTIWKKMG

[1] = tested on: purified mouse liver mitochondria; experiment: Cytochrome c release assay (ELISA), wild-type mitochondria; type: biochemical; details: wild-type versus Bak-/- mitochondria
Procedure: In order to assess the biological activity of SAHB3BID compounds in vitro, cytochrome c release assays were performed using purified mouse liver mitochondria. Mitochondria (0.5 mg/mL) were incubated for 40 minutes with 1 μM and 100 nM of SAHB3BID compounds and then supernatants and mitochondrial fractions isolated and subjected to cytochrome c ELISA assay. Background cytochrome c release (10-15%) was subtracted from total release for each sample, and the percent actual cytochrome c release was determined (FIG. 12). […] In each case, except for the double cross-linked SAHB3BIDE (which may lack critical amino acids for biological activity or, in this case, be overly constrained by the dual cross-links), there is approximately a doubling of cytochrome c release in response to 1 μM SAHB3BID compounds compared to the unmodified peptide (FIG. 12a). […] BID mutants with defective BH3 domains can promote BAK-independent cytochrome c mobilization (Scorrano et al, Dev Cell, 2:55), and the highly hydrophobic BID helix 6 has been implicated in this activity (L. Scorrano, S. J. Korsmeyer, unpublished results).
Similar to the above experiment, mouse liver mitochondria from wild-type and Bak−/− mice were exposed to the compounds at various concentrations and assayed for cytochrome c release at 10 and 40 minute intervals. […] Thus, SAHB3BIDA and B display a 10-25 fold enhancement in cytochrome c release activity at the 40 minute time point.

Jurkat leukemia cells = experiment: Apoptosis by annexin V flow cytometry; type: cell-based; details: 10 μM, 20 hours
Procedure: Indeed, the pro-apoptotic effect of 10 uM SAHB3BIDA and B on “wild-type” Jurkats was abolished in the BCL-2 overexpressing cells. […] The observed pro-apoptotic effects are selectively abolished by gly to glu mutation of SAHB3BIDA and cellular overexpression of BCL-2, findings which underscore that SAHB3BID compounds function via the defined mitochondrial apoptosis pathway.

[2] = tested on: REH, MV4; 11, and SEMK2 cell lines; experiment: Apoptosis induction assays; type: cell-based

Kd (BCL-2): 483 nM
BAX binding, in words (BAX): measurable binding
SMILES: CCCC[C@H](NC(=O)[C@]1(C)CCCC=CCCC[C@](C)(NC(=O)[C@H](C)NC(=O)[C@H](CC(C)C)NC(=O)[C@H](Cc2c[nH]cn2)NC(=O)[C@H](CCCNC(=N)N)NC(=O)[C@H](C)NC(=O)[C@@H](NC(=O)[C@H](CC(N)=O)NC(=O)[C@H](CCCNC(=N)N)NC(=O)[C@@H](NC(=O)[C@@H](NC(=O)[C@H](CC(=O)O)NC(=O)[C@H](CCC(=O)O)NC(C)=O)[C@@H](C)CC)[C@@H](C)CC)[C@@H](C)CC)C(=O)N[C@@H](C(C)C)C(=O)N[C@@H](CCC(=O)O)C(=O)N[C@@H](CC(=O)O)C(=O)N1)C(=O)N[C@@H](CC(=O)O)C(=O)N[C@@H](CCCNC(=N)N)C(=O)N[C@@H](CO)C(=O)N[C@H](C(=O)N[C@@H](Cc1c[nH]c2ccccc12)C(N)=O)[C@@H](C)CC [SAHB3BID(G→E)A] (Ac-EDIIRNIARHLA[S5]VED[S5][Nle]DRSIW-NH2; staple 13-17; N-terminus assumed)
Bak dependence of cytochrome c release, in words [1]: only Bak-independent cytochrome c release
apoptosis induction, in words (Jurkat leukemia cells): no effect
apoptosis induction, in words [2]: no effect
